According to ChEMBL document CHEMBL1144590, “Thienopyridine urea inhibitors of KDR kinase” (Bioorg Med Chem Lett, 2007):
Blank lines part the entries; values can stand above or below the molecule they belong to.

What was measured:
[1] = target: T1, Vascular endothelial growth factor receptor 2 (Homo sapiens, UniProt P35968)
[2] = target: T1, Vascular endothelial growth factor receptor 2; format: functional, cell-based, NIH3T3
[3] = Half life in mouse at 3 mg/kg, iv; format: ADME, organism-based; set-up: dose 3 mg/kg, route intravenous; details: in vivo
Cytochrome P450 3A4 = Cytochrome P450 3A4 (Homo sapiens, UniProt P08684); experiment: Inhibition of CYP3A4; format: ADME
Chain of Cytochrome P450 3A4 (P08684 whole entry): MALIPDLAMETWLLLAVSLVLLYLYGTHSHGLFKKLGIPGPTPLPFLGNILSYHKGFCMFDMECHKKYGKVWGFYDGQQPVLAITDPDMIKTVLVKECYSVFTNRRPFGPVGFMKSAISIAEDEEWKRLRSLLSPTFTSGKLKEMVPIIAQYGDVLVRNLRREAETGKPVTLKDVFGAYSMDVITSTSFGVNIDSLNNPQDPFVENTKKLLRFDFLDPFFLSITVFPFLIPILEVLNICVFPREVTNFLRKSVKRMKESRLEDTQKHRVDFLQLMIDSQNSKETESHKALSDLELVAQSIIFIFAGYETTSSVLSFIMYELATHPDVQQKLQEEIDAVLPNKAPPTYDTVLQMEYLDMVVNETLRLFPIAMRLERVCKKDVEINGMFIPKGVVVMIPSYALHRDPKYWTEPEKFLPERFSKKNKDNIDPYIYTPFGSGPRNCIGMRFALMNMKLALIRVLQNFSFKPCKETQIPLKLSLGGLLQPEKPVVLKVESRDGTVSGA

Mus musculus = experiment: Inhibition of estradiol-induced mouse uterine edema […]; format: functional

T1 sequence (P35968 whole entry): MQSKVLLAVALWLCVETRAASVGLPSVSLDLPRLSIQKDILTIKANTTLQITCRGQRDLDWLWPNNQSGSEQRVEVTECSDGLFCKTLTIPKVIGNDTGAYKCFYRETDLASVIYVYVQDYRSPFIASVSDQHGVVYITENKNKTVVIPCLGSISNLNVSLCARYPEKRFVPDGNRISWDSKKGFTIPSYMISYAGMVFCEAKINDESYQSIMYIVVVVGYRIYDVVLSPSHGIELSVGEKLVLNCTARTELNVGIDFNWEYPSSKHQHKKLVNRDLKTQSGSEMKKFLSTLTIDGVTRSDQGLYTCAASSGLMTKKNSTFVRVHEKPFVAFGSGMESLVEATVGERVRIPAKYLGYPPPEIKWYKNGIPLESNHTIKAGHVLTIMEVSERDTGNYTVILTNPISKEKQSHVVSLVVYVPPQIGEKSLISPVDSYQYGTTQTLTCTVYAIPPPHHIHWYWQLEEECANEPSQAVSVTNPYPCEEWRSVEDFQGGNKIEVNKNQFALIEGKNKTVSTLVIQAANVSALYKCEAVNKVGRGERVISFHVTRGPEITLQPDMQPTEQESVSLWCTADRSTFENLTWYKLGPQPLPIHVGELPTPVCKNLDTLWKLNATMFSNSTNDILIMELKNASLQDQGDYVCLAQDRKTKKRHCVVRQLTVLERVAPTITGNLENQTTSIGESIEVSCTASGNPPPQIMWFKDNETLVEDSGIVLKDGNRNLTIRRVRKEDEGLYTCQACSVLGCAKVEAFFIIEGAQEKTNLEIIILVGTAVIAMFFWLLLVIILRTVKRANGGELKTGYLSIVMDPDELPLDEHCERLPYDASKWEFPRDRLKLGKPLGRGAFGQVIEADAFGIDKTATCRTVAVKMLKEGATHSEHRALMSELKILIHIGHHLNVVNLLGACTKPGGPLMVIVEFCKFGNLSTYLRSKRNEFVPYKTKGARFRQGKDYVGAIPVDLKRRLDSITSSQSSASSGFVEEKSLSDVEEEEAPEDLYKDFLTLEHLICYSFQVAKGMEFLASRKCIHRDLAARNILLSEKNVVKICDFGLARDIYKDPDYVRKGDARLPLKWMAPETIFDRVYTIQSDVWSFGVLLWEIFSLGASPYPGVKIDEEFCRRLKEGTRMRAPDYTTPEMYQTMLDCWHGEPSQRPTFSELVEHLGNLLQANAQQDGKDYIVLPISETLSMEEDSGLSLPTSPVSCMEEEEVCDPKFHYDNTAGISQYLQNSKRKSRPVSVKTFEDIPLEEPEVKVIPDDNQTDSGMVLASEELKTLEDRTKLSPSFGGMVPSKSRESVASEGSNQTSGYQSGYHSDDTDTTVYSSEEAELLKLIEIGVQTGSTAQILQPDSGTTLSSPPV

Compound: Cc1cccc(NC(=S)Nc2ccc(-c3csc4ccnc(N)c34)cc2)c1
- IC50 [1]: 410 nM

Compound: Cc1ccccc1NC(=O)Nc1ccc(-c2csc3ccnc(N)c23)cc1
- IC50 [1]: 152 nM

Compound: Cc1cccc(NC(=O)Cc2ccc(-c3csc4ccnc(N)c34)cc2)c1
- IC50 [1]: 94 nM

Compound: Nc1nccc2scc(-c3ccc(NC(=O)NC4CCCC4)cc3)c12
- IC50 [1]: 420 nM

Compound: Nc1nccc2scc(-c3ccc(NC(=O)c4ccccc4)cc3)c12
- IC50 [1]: 12000 nM

Compound: Nc1nccc2scc(-c3ccc(NC(=O)Nc4ccccc4)cc3)c12
- IC50 [2]: 72 nM
- IC50 [1]: 56 nM

Compound: Cc1cccc(CC(=O)Nc2ccc(-c3csc4ccnc(N)c34)cc2)c1
- IC50 [1]: 520 nM

Compound: Nc1ccc(-c2csc3ccnc(N)c23)cc1
- IC50 [1]: 4900 nM

Compound: Cc1cccc(NC(=O)Nc2cccc(-c3csc4ccnc(N)c34)c2)c1
- IC50 [1]: 250 nM

Compound: Nc1nccc2scc(-c3ccc(NC(=O)Nc4ccsc4)cc3)c12
- IC50 [2]: 61 nM
- IC50 [1]: 38 nM

Compound: Nc1nccc2scc(-c3ccc(NC(=O)Nc4cccs4)cc3)c12
- IC50 [2]: 48 nM
- IC50 [1]: 30 nM

Compound: Cc1cccc(N(C)C(=O)Nc2ccc(-c3csc4ccnc(N)c34)cc2)c1
- IC50 [1]: 4900 nM

Compound: Cc1cccc(NC(=O)Nc2ccc(-c3csc4c(-c5cccnc5)cnc(N)c34)cc2)c1
- half-life [3]: 24 min
- IC50 (Cytochrome P450 3A4): 250 nM
- ED50 (Mus musculus): 2.1 mg/kg

Compound: N#Cc1cccc(NC(=O)Nc2ccc(-c3csc4ccnc(N)c34)cc2)c1
- IC50 [2]: 198 nM
- IC50 [1]: 45 nM

Compound: Nc1nccc2scc(-c3ccc(NC(=O)Nc4cccc5ccccc45)cc3)c12
- IC50 [2]: 895 nM
- IC50 [1]: 75 nM

Compound: Nc1nccc2scc(-c3ccc(NC(=O)NC4CCCCC4)cc3)c12
- IC50 [1]: 491 nM

Compound: Cc1cccc(NC(=O)Nc2ccc(-c3csc4c(-c5cncc6ccccc56)cnc(N)c34)cc2)c1
- IC50 [1]: 388 nM

Compound: Nc1nccc2scc(-c3ccccc3)c12
- IC50 [1]: > 12500 nM

Other lines, results leading:

- IC50 [2]: 32 nM
- IC50 [1]: 25 nM
Compound: CCc1cccc(NC(=O)Nc2ccc(-c3csc4ccnc(N)c34)cc2)c1

- IC50 [2]: 33 nM
- IC50 [1]: 13 nM
Compound: Cc1cccc(NC(=O)Nc2ccc(-c3csc4c(-c5ccccc5)cnc(N)c34)cc2)c1

- IC50 [2]: 141 nM
- IC50 [1]: 26 nM
Compound: Cc1ccc(NC(=O)Nc2ccc(-c3csc4ccnc(N)c34)cc2)cc1

- IC50 [2]: 41 nM
- IC50 [1]: 10 nM
Compound: Cc1ccc(NC(=O)Nc2ccc(-c3csc4ccnc(N)c34)cc2)cc1C

- IC50 [2]: 29 nM
- IC50 [1]: 11 nM
Compound: Cc1cccc(NC(=O)Nc2ccc(-c3csc4c(-c5ccc(O)cc5)cnc(N)c34)cc2)c1

- IC50 [2]: 15 nM
- IC50 [1]: 21 nM
Compound: Nc1nccc2scc(-c3ccc(NC(=O)Nc4ccc5ccccc5c4)cc3)c12

- IC50 [2]: 56 nM
- IC50 [1]: 11 nM
Compound: CNC(=O)c1cccc(-c2cnc(N)c3c(-c4ccc(NC(=O)Nc5cccc(C)c5)cc4)csc23)c1

- IC50 [2]: 1 nM
- IC50 [1]: 8 nM
Compound: Cc1cccc(NC(=O)Nc2ccc(-c3csc4c(-c5cncnc5)cnc(N)c34)cc2)c1

- IC50 [2]: 48 nM
- IC50 [1]: 16 nM
Compound: Cc1cc(C)cc(NC(=O)Nc2ccc(-c3csc4ccnc(N)c34)cc2)c1

- IC50 [1]: 23 nM
Compound: Cc1cccc(NC(=O)N(C)c2ccc(-c3csc4ccnc(N)c34)cc2)c1

- IC50 [1]: 27 nM
Compound: Cc1cccc(NC(=O)Nc2ccc(-c3c(C)sc4ccnc(N)c34)cc2)c1
